Assay results as given in PubChem BioAssay AID338 (DTP/NCI, 2004).
Values joined by “and” are separate entries in the source; they are usually repeats but may differ in a detail not shown here. Equal values may be shown once. Inconclusive results and toxic doses are left out. The calls were made as follows: active = survival T/C of 150% or more; inactive = T/C below 125% in these data.

Test system: BDF1 mice, P388 leukemia (terephthalanilide-resistant), survival T/C
Test: NCI In Vivo Anticancer Drug Screen. Data for tumor model P388 Leukemia resistant to A Terephthalanilide; NSC 38280 (intraperitoneal) in B6D2F1 (BDF1) mice
Details: endpoint: median survival time, schedule: Q01DX010 (ip), higher = longer survival
Description: The antitumor activity of compounds was measured in mice bearing transplantable tumors. Survival or tumor size were measured and the results are expressed as the measurement made in the treated group (T) divided by the measurement made in the vehicle treated control group (C). The tumor model used in this assay is P388 Leukemia resistant to A Terephthalanilide; NSC 38280 (intraperitoneal) in B6D2F1 (BDF1) mice

[1] = dose: 20.0 mg/kg/injection, vehicle: saline
[2] = dose: 40.0 mg/kg/injection, vehicle: saline
[3] = dose: 80.0 mg/kg/injection, vehicle: saline
[4] = dose: 160.0 mg/kg/injection, vehicle: saline
[5] = dose: 2.0 mg/kg/injection, vehicle: saline
[6] = dose: 4.0 mg/kg/injection, vehicle: saline
[7] = dose: 8.0 mg/kg/injection, vehicle: saline
[8] = dose: 16.0 mg/kg/injection, vehicle: saline
[9] = dose: 62.5 mg/kg/injection, vehicle: saline
[10] = dose: 125.0 mg/kg/injection, vehicle: saline
[11] = dose: 250.0 mg/kg/injection, vehicle: saline
[12] = dose: 31.3 mg/kg/injection, vehicle: saline

Measured: T/C

O=c1[nH]cc(F)c(=O)[nH]1
active: dose: 10.0 mg/kg/injection, vehicle: saline 150 % of control and 183 % of control | [1] 170 % of control and 222 % of control
inactive: dose: 5.0 mg/kg/injection, vehicle: saline 120 % of control | [2] 95 % of control and 111 % of control

Cn1c(N)nc2nc[nH]c2c1=S
inactive: [1] 100 % of control | [2] 100 % of control | [3] 95 % of control | [4] 90 % of control

Nc1nc(=S)c2ncn(C3OC(CO)C(O)C3O)c2[nH]1 (stereo not given)
inactive: [5] 109 % of control | [6] 104 % of control | [7] 105 % of control | [8] 105 % of control

OCC1OC(n2cnc3c(=S)nc[nH]c32)C(O)C1O (stereo not given)
inactive: [1] 90 % of control and 111 % of control | [2] 100 % of control and 105 % of control | [3] 116 % of control | [4] 110 % of control

OCC1OC(n2cnc3c(Cl)ncnc32)C(O)C1O (stereo not given)
inactive: [9] 94 % of control | [10] 100 % of control | [11] 90 % of control and 94 % of control | dose: 500.0 mg/kg/injection, vehicle: saline 90 % of control and 111 % of control

CC(CCC(C)OS(C)(=O)=O)OS(C)(=O)=O (stereo not given)
inactive: [5] 90 % of control and 95 % of control | [6] 95 % of control and 100 % of control | [7] 100 % of control | [8] 86 % of control and 100 % of control

CC1CN=C(c2ccc(NC(=O)c3cccc(C(=O)Nc4ccc(C5=NCC(C)N5)cc4)c3)cc2)N1 (stereo not given)
inactive: dose: 12.0 mg/kg/injection, vehicle: saline 100 % of control | dose: 18.0 mg/kg/injection, vehicle: saline 100 % of control | dose: 27.0 mg/kg/injection, vehicle: saline 100 % of control | [2] 88 % of control

CCCSc1ncnc2nc[nH]c12
inactive: [12] 118 % of control | [9] 112 % of control

CN[C@H]1CCc2cc(OC)c(OC)c(OC)c2-c2ccc(OC)c(=O)cc21
inactive: dose: 0.63 mg/kg/injection, vehicle: other 94 % of control and 110 % of control | dose: 1.25 mg/kg/injection, vehicle: other 100 % of control and 110 % of control | dose: 2.5 mg/kg/injection, vehicle: other 100 % of control and 120 % of control | dose: 5.0 mg/kg/injection, vehicle: other 88 % of control and 115 % of control

O=C1CCC(N2C(=O)c3ccccc3C2=O)C(=O)N1 (stereo not given)
inactive: [12] 117 % of control | [9] 100 % of control and 117 % of control | [10] 100 % of control and 105 % of control | [11] 90 % of control and 94 % of control

CN(C)CC(=O)c1ccc(O)c(O)c1
inactive: dose: 200.0 mg/kg/injection, vehicle: saline 113 % of control | dose: 300.0 mg/kg/injection, vehicle: saline 113 % of control | dose: 450.0 mg/kg/injection, vehicle: saline 113 % of control

CS(=O)(=O)OCCCCOS(C)(=O)=O
inactive: dose: 6.25 mg/kg/injection, vehicle: saline 87 % of control and 100 % of control | dose: 12.5 mg/kg/injection, vehicle: saline 100 % of control and 106 % of control | dose: 25.0 mg/kg/injection, vehicle: saline 87 % of control and 100 % of control | dose: 50.0 mg/kg/injection, vehicle: saline 106 % of control
